Measured values from patent publication US20260365653A1, “IRREVERSIBLE MUTEGFR INHIBITORS” (Bayer Aktiengesellschaft, priority 2022, published 2026).

Legend:
[1] = biological target: T1, mutEGFR (D770_N771insSVD) (Homo sapiens, UniProt P00533, DUP768-770); experiment: Exon20-Mutant-EGFR (D770_N771insSVD) kinase assay (TR-FRET); type: biochemical
T1 construct: GST-EGFR #3 (SVD between D770 and N771); made in house; host or cells: Sf9 insect cells (baculovirus)

[2] = biological target: T2, mutEGFR (D770_N771insNPG, T790) (Homo sapiens, UniProt P00533, INS770NPG/T790M); experiment: mutEGFR (D770_N771insNPG, T790) kinase assay; type: biochemical
T2 construct: exact insNPG construct not described; in-house EGFR proteins were N-terminal GST fusions from baculovirus/insect cells (borders R669-A1210 given only for WT, insSVD, insASV)
T2 sequence (P00533 with tags, fused parts or gaps INS770NPG/T790M limits assumed): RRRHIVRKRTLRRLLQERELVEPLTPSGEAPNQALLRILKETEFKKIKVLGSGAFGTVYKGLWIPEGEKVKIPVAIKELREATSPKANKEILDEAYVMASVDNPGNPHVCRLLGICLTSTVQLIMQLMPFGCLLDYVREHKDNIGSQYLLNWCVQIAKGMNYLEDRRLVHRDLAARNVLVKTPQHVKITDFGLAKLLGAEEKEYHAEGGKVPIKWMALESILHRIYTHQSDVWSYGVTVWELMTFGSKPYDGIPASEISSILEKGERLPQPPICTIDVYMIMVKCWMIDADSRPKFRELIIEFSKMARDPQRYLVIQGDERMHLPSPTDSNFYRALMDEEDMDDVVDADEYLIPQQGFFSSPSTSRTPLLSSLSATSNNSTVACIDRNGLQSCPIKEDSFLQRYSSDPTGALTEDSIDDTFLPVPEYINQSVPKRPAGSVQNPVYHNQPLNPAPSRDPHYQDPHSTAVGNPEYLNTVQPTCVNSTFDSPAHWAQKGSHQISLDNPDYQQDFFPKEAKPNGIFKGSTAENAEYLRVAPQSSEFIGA
Description: The different EGFR proteins used in the biochemical kinase activity inhibition assays were generated inhouse by expression in insect cells using Baculo Virus system and subsequent purification as described in the following paragraphs.
The cDNAs encoding the various protein sequences from human EGFR human (P00533) were optimized for expression in eukaryotic cells and synthesized by the GeneArt Technology at Life Technologies.

BA/F3 (insSVD) cells = experiment: Ba/F3-EGFR-insSVD cell survival assay (Cell Titer-Glo); type: cell-based
Method in brief: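 Ba/F3 cells stably expressing retroviral EGFR-insSVD or insSVD T790M, grown without IL-3 on 10 ng/ml EGF, 4000 cells/well. Compound pinned in, 48 h at 37° C. Viability by CellTiter-Glo luminescence.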

[3] = mutEGFR (D770_N771insSVD) kinase assay IC50, Table 2a, D770_N771insSVD, 2 mM ATP
[4] = Mus musculus, BaF3, 48 h, Table 3a, cell survival, Cell Titer-Glo, with 10 ng/ml EGF, without IL-3
[5] = mutEGFR (D770_N771insSVD) kinase assay IC50, Table 2b (from US Priority Patent Application), mutEGFR D770_N771insSVD
[6] = Mus musculus, BaF3, 48 h, Table 3b, Ba/F3 EGFR-insSVD

T1 sequence (P00533 with tags, fused parts or gaps DUP768-770): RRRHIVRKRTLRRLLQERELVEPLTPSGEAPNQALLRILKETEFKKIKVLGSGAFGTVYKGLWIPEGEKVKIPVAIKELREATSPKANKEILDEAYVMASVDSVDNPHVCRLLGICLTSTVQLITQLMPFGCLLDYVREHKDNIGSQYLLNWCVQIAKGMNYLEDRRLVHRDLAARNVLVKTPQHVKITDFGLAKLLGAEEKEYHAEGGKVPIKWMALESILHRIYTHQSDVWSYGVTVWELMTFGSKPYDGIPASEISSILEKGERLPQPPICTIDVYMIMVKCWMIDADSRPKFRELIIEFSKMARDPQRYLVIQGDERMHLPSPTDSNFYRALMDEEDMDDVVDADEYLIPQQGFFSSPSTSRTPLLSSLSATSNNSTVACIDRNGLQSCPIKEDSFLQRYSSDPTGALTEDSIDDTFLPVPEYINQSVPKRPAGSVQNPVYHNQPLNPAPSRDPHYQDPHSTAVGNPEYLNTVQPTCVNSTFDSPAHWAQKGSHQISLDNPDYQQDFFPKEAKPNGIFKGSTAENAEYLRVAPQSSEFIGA

| IC50 [1, 3] [nM] | IC50 ([2]; Table 2a, D770_N771insNPG) [nM] | IC50 [1, 5] [nM] | IC50 ([2]; Table 2b (from US Priority Patent Application), mutEGFR D770_N771insNPG) [nM] | Structure (SMILES) | IC50 (BA/F3 (insSVD) cells; Table 3a, cell survival, Cell Titer-Glo, with 10 ng/ml EGF, without IL-3, 48 h) [nM] | IC50 (BA/F3 (insSVD) cells; [4]) [nM] | IC50 (BA/F3 (insSVD) cells; [6]) [nM] |
| --- | --- | --- | --- | --- | --- | --- | --- |
| 37.1 | 84.2 | 37.1 | 84.2 | C=CC(=O)N1CCn2nc(-c3ccc(F)cc3)c(-c3ccncc3OC)c2C1 [Example 12, 1-[2-(4-fluorophenyl)-3-(3-methoxypyridin-4-yl)-6,7-dihydropyrazolo[1,5-a]pyrazin-5(4H)-yl]prop-2-en-1-one] |  | 359 | 359 |
| 0.644 | 2.22 |  |  | C=CC(=O)N1Cc2c(-c3ccncc3)c(-c3ccc(F)cc3)nn2C(C)(C)C1 [Example 207, 1-[2-(4-fluorophenyl)-7,7-dimethyl-3-(pyridin-4-yl)-6,7-dihydropyrazolo[1,5-a]pyrazin-5(4H)-yl]prop-2-en-1-one] |  | 24.6 |  |
| 6.69 | 45.5 |  |  | C=CC(=O)N1CCn2nc(-c3ccc(OCC)cc3)c(-c3ccncc3)c2C1 [Example 130, 1-[2-(4-ethoxyphenyl)-3-(pyridin-4-yl)-6,7-dihydropyrazolo[1,5-a]pyrazin-5(4H)-yl]prop-2-en-1-one] |  | 980 |  |
| 25.9 | 210 | 25.9 |  | C=CC(=O)N1CCn2nc(Nc3ccc(F)cc3)c(-c3ccncc3)c2C1 [Example 19, 1-[2-(4-fluoroanilino)-3-(pyridin-4-yl)-6,7-dihydropyrazolo[1,5-a]pyrazin-5(4H)-yl]prop-2-en-1-one] |  | 823 | 823 |
| 1 | 1.77 |  |  | Cc1cccc(-c2nn3c(c2-c2ccncc2)CN(C(=O)/C=C/CN(C)C)CC3)c1 [Example 157, (2E)-4-(dimethylamino)-1-[2-(3-methylphenyl)-3-(pyridin-4-yl)-6,7-dihydropyrazolo[1,5-a]pyrazin-5(4H)-yl]but-2-en-1-one] |  | 117 |  |

More lines, now with the values behind:

| Structure (SMILES) | IC50 [1, 3] [nM] | IC50 ([2]; Table 2a, D770_N771insNPG) [nM] | IC50 [1, 5] [nM] | IC50 ([2]; Table 2b (from US Priority Patent Application), mutEGFR D770_N771insNPG) [nM] | IC50 (BA/F3 (insSVD) cells; Table 3a, cell survival, Cell Titer-Glo, with 10 ng/ml EGF, without IL-3, 48 h) [nM] | IC50 (BA/F3 (insSVD) cells; [4]) [nM] | IC50 (BA/F3 (insSVD) cells; [6]) [nM] |
| --- | --- | --- | --- | --- | --- | --- | --- |
| C=CC(=O)N1CCn2nc(-c3ccc(F)cc3)c(-c3ccnc4[nH]ccc34)c2C1C (single isomer, unassigned; isomer 2) [Example 261, 1-(2-(4-fluorophenyl)-4-methyl-3-(1H-pyrrolo[2,3-b]pyridin-4-yl)-6,7-dihydropyrazolo[1,5-a]pyrazin-5(4H)-yl) prop-2-en-1-one (isomer 2)] | 6.5 | 7.3 |  |  | 111 |  |  |
| C=CC(=O)N1Cc2c(-c3ccnc4[nH]cc(C)c34)c(-c3ccc(C(F)(F)F)cc3)nn2C[C@H]1C [Example 260, 1-[(6R)-6-methyl-3-(3-methyl-1H-pyrrolo[2,3-b]pyridin-4-yl)-2-[4-(trifluoromethyl)phenyl]-6,7-dihydropyrazolo[1,5-a]pyrazin-5(4H)-yl]prop-2-en-1-one] | 82.9 | 1280 |  |  |  | 101 |  |
| C=CC(=O)N1CCn2nc(-c3ccc(Cl)cc3F)c(-c3ccnc4[nH]cc(C)c34)c2C1 [Example 49, 1-[2-(4-chloro-2-fluorophenyl)-3-(3-methyl-1H-pyrrolo[2,3-b]pyridin-4-yl)-6,7-dihydropyrazolo[1,5-a]pyrazin-5(4H)-yl]prop-2-en-1-one] | 112 | 121 |  |  |  | 71.7 |  |
| COc1ccc(-c2nn3c(c2-c2ccncc2)CN(C(=O)/C=C/CN(C)C)CC3)cc1F [Example 31, (2E)-4-(dimethylamino)-1-[2-(3-fluoro-4-methoxyphenyl)-3-(pyridin-4-yl)-6,7-dihydropyrazolo[1,5-a]pyrazin-5(4H)-yl]but-2-en-1-one] | 4.05 | 18.8 |  |  |  | 874 |  |
| C=CC(=O)N1Cc2c(-c3ccncc3)c(-c3ccc(OC)cc3F)nn2CC1C (racemic) [Example 231, 1-[(RS)-2-(2-fluoro-4-methoxyphenyl)-6-methyl-3-(pyridin-4-yl)-6,7-dihydropyrazolo[1,5-a]pyrazin-5(4H)-yl]prop-2-en-1-one] | 0.502 | 1.1 |  |  |  | 65.9 |  |
